{
  "source": "paper PMC8688152",
  "about": "“Distinct classes of potassium channels fused to GPCRs as electrical signaling biosensors” (Cell Reports Methods, 2021)",
  "key": {"M2_T-00-40": {"molecular_target": "T1, M2_T-00-40 (UniProt P08172+P97438)", "T1 construct": "full-length (−00) or M2 deleted of its last nine residues (−09) in the indicated ICCRs; expressed in transfected cells; host or cells: Xenopus oocytes (mRNA injection)", "T1 sequence (P08172+P97438 fused)": "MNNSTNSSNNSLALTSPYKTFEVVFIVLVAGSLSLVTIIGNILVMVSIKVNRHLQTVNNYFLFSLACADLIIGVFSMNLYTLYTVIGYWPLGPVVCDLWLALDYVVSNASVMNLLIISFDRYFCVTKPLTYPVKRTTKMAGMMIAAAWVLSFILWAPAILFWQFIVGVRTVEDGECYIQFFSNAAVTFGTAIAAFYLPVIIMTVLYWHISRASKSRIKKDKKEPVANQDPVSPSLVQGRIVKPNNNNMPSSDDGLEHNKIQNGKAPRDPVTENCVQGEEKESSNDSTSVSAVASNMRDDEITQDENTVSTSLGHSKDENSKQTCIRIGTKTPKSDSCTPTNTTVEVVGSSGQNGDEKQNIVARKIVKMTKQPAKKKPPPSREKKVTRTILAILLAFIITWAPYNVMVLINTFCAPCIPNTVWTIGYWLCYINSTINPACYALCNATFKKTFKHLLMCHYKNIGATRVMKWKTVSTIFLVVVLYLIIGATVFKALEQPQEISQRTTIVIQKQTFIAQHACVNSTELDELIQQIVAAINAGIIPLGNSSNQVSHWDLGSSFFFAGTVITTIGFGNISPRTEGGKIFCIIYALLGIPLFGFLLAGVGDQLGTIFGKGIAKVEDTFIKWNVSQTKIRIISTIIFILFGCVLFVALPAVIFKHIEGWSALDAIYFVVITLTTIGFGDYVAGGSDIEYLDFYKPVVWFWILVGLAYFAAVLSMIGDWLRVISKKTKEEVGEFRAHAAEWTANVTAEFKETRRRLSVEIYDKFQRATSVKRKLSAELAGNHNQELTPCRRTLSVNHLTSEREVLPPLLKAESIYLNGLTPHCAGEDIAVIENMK", "test": "TEVC recording of M2_T-00-40 ICCR in Xenopus oocytes", "format": "cell-based, human (M2), mouse (TREK-1)", "conditions": "91 mM K+, Vm = −50 mV, mean ± SEM", "method": "(§1) Microelectrodes were filled with […]. […] The membrane voltage was clamped to −50 mV."}, "M2_Kcv-09-03": {"molecular_target": "T2, M2_Kcv-09-03 (UniProt P08172+Q84568)", "T2 construct": "expressed in transfected cells; host or cells: Xenopus oocytes (mRNA injection)", "T2 sequence (P08172+Q84568 with tags, fused parts or gaps)": "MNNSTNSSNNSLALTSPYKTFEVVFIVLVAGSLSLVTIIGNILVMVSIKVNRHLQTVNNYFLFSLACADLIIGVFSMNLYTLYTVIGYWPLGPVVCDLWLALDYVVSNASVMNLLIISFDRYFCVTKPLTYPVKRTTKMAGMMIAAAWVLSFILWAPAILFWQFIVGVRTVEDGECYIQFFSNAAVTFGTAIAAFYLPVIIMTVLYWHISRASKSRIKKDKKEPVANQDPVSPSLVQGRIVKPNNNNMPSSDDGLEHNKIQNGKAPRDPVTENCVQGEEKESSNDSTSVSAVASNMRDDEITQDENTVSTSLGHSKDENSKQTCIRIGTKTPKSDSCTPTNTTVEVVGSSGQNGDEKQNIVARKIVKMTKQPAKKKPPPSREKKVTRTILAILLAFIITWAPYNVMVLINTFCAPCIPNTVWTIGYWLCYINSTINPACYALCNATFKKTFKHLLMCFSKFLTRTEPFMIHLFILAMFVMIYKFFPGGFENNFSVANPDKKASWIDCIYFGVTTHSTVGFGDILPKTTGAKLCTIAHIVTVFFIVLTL", "test": "TEVC recording of M2_Kcv-09-03 ICCR expressed in Xenopus oocytes", "format": "cell-based, human (M2), Paramecium bursaria chlorella virus 1 (Kcv)", "method": "as §1"}},
  "data": [
    {"molecule": "CC(=O)OCC[N+](C)(C)C", "note": "[ACh, acetylcholine]", "values": [
      {"measurement": "activation: % of current change induced by ACh 5 μM on M2_T-00-40", "setting": "M2_T-00-40", "value": "20.2% ± 3.5%"},
      {"measurement": "Hill coefficient (nH) on M2_Kcv-09-03", "setting": "M2_Kcv-09-03; concentration-effect curve, TEVC", "value": 0.37},
      {"measurement": "inhibition at 5 µM", "setting": "M2_Kcv-09-03; read-out: inhibition: % of current change induced by ACh 5 μM on M2_Kcv-09-03, 5 μM, Xenopus oocytes, 91 mM K+, Vm = −50 mV, printed as inhibition, mean ± SEM", "value": 53.4, "unit": "%"}
    ]}
  ]
}
